Reference: patent US8828971B2, “Galactose-pronged carbohydrate compounds for the treatment of diabetic nephropathy and associated disorders” (Galectin Therapeutics, Inc., priority 2012, dated 2014)

Legend:
[1] = test system: mouse model of diabetic nephropathy; test: Sirius red stained kidney sections with digital morphometry, mouse model of diabetic nephropathy; assay type: in vivo; settings: diabetic mice, IV 40 mg/kg three times weekly for four weeks; for Sirius red staining (interstitial collagen between renal tubules), histological appearance: FIG. 2, 40 mg/kg
Method: Shown are low (×50) and high magnification (×200) pictures of the three experimental groups: 1) Normal mouse; 2) Diabetic mice treated with vehicle (phosphate buffered saline, treatment control); and 3) Diabetic mice treated with GR-MD-02/001 B (IV 40 mg/kg). The arrows point to a stained strand that indicates the presence of collagen type.
Statistical comparisons of the percent Sirius red staining shown for the three experimental groups: 1) Normal mouse; 2) Diabetic mice treated with vehicle (phosphate buffered saline, treatment control); and 3) Diabetic mice treated with GR-MD-02/001 B (IV 40 mg/kg).
(§1) The experimental model used in this example is the mouse in which diabetes was induced and a high fat diet was administered. Diabetes was induced immediately following birth with a single injection of streptozotocin. Four weeks later the mice were started on a high fat diet.
(§2) Diabetic mice were treated either with vehicle (phosphate buffered saline) or GR-MD-02/001B given intravenously in a dose of 40 mg/kg three times weekly for four weeks total. There were eight (8) mice in each group. Two normal mice were also utilized as a comparison group.
Sirius red reagent is used as a stain to evaluate the increase in extracellular matrix material in the interstitium between tubular cells. Minimal red staining is seen in the normal animals. However, there is an increase in staining seen in the vehicle treated control animals.
Thirty two (32) separate slides from each group were blindly evaluated by quantitative digital morphometry for the percent staining with Sirius red.

[2] = test system: mouse model of diabetic nephropathy; test: PAS stained kidney sections, mouse model of diabetic nephropathy; assay type: in vivo; settings: diabetic mice, IV 40 mg/kg three times weekly for four weeks
Method: Shown are low (×200) and high magnification (×400) pictures of the three experimental groups: 1) Normal mouse; 2) Diabetic mice treated with vehicle (phosphate buffered saline, treatment control); and 3) Diabetic mice treated with GR-MD-02/001 B (IV 40 mg/kg). The arrows point to a glomerulus.
as §1, §2
The diabetic mice had clear histological evidence of diabetic nephropathy as shown in pictures of PAS stained kidney sections in FIG. 1. […] In the vehicle treated control animals there is a clear increase in mesangial basement membrane material (the pink extracellular matrix) over the normal animals.

## galactoarabino-rhamnogalacturonate [GR-MD-02/001B]
[1]; 32 slides per group, levels nearly the same as normal mice, FIG. 3
  Percent Sirius red staining by quantitative digital morphometry compared to vehicle treated controls: statistically significant decrease
[1]
  Sirius red staining (interstitial collagen between renal tubules), histological appearance: marked reduction
[1]; listed as GR-MD02/001B
  Sirius red staining (interstitial collagen between renal tubules), histological appearance: reduced the deposition of matrix
[2]; FIG. 1
  Mesangial extracellular matrix material (PAS stain, glomerulus) compared to vehicle treated control animals: marked decrease
[2]; FIG. 1, listed as GR-MD02/001B
  Mesangial extracellular matrix material (PAS stain, glomerulus) compared to vehicle treated control animals: reduced the mesangial expansion of extracellular matrix
